What was measured:
[1] = molecular target: cell wall binding domain of the endolysin PlyL (Bacillus anthracis, UniProt A0A6H3AMF3); test: biochemical; design: species or system Bacillus anthracis bacteriophage
[2] = molecular target: cell wall binding domain of the endolysin PlyG (Bacillus phage Gamma, UniProt Q8LTE6); test: biochemical; design: species or system Bacillus anthracis bacteriophage
cell wall binding domain of the endolysin PlyG, sequence (Q8LTE6 166-233 limits assumed): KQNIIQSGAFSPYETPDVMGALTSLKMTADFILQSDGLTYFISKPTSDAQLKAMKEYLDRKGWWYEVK

cell wall binding domain of the endolysin PlyL, sequence (A0A6H3AMF3 160-234 limits assumed): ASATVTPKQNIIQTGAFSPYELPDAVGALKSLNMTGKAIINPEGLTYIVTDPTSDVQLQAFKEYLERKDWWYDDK

## CC(=O)N[C@@H]1[C@H](O[C@H]2[C@H](O[C@H]3O[C@H](CO)[C@H](O)[C@H](O)[C@H]3O)[C@@H](NC(C)=O)[C@H](OCCCCCN)O[C@@H]2CO)O[C@H](CO)[C@@H](O[C@H]2O[C@H](CO)[C@@H](O[C@@H]3O[C@H](CO)[C@H](O)[C@H](O)[C@H]3O)[C@H](O[C@H]3O[C@H](CO)[C@H](O)[C@H](O)[C@H]3O)[C@H]2NC(C)=O)[C@@H]1O [Compound 1]
[1]
  Kd: 23 ± 2 µM
  fold reduced affinity compared to tetrasaccharide 3: 10 fold
[2]
  Kd: 23.3 ± 0.5 µM

## CC(=O)N[C@@H]1[C@H](O[C@H]2[C@H](O)[C@@H](NC(C)=O)[C@H](OCCCCCN)O[C@@H]2CO)O[C@H](CO)[C@@H](O[C@H]2O[C@H](CO)[C@@H](O)[C@H](O)[C@H]2NC(C)=O)[C@@H]1O [Compound 2]
[1]
  Kd: 13.5 µM
[2]
  Kd: 8.6 ± 0.4 µM

## CC(=O)N[C@@H]1[C@H](O[C@H]2[C@H](O)[C@@H](NC(C)=O)[C@H](OCCCCCN)O[C@@H]2CO)O[C@H](CO)[C@@H](O[C@H]2O[C@H](CO)[C@@H](O[C@@H]3O[C@H](CO)[C@H](O)[C@H](O)[C@H]3O)[C@H](O)[C@H]2NC(C)=O)[C@@H]1O [Compound 3]
[1]
  Kd: 1.1 µM
  binding to PlyL in words: exceptional high affinity
[2]
  Kd: 2.1 ± 1.1 µM

## CC(=O)N[C@@H]1[C@H](O[C@H]2[C@H](O)[C@@H](NC(C)=O)[C@H](OCCCCCN)O[C@@H]2CO)O[C@H](CO)[C@@H](O[C@H]2O[C@H](CO)[C@@H](O)[C@H](O[C@H]3O[C@H](CO)[C@H](O)[C@H](O)[C@H]3O)[C@H]2NC(C)=O)[C@@H]1O [Compound 4]
[1]
  Kd: 153 ± 10 µM
  binding to PlyL in words: complexed poorly with the protein
[2]
  Kd: 136 ± 7 µM

## CC(=O)N[C@@H]1[C@H](O[C@H]2[C@H](O[C@H]3O[C@H](CO)[C@H](O)[C@H](O)[C@H]3O)[C@@H](NC(C)=O)[C@H](OCCCCCN)O[C@@H]2CO)O[C@H](CO)[C@@H](O[C@H]2O[C@H](CO)[C@@H](O)[C@H](O)[C@H]2NC(C)=O)[C@@H]1O [Compound 5]
[1]
  Kd: 6.2 ± 2 µM
[2]
  Kd: 4.1 ± 0.5 µM

## CC(=O)N[C@@H]1[C@H](O[C@H]2[C@H](O)[C@@H](NC(C)=O)[C@H](OCCCCCN)O[C@@H]2CO)O[C@H](CO)[C@@H](O)[C@@H]1O [Compound 6]
[1]
  Kd: 110 ± 9 µM
[2]
  Kd: 49 ± 2 µM

## CC(=O)N[C@@H]1[C@H](O[C@H]2[C@H](O)[C@@H](NC(C)=O)[C@H](OCCCCCN)O[C@@H]2CO)O[C@H](CO)[C@@H](O[C@H]2O[C@H](CO)[C@H](O)[C@H](O)[C@H]2NC(C)=O)[C@@H]1O [Compound 7]
[1]
  Kd: 43 ± 11 µM
[2]
  Kd: 19.5 ± 7.5 µM
